According to US20260232745A1, “INHIBITION OF METHANE PRODUCTION IN RUMINANTS” (Loam Bio Pty Ltd, priority 2023, published 2026):
Like-named read-outs stand apart in the source and are kept apart here.

Tests used:
methane production = settings: among the antimethanogenic compounds found in A. taxiformis; cited from earlier work
[1] = test system: Curvularia sp. 4388 (NMI Accession No. V22/011149) VHPO, culture supernatant; settings: MCD assay; for Km: pH 5.5, 25° C.
Experimental: (§1) Kinetic parameters of VHPOs were determined using the monochlorodimedone (MCD) (2-chloro-5,5-dimethyl-1,3-dimedon) assay. The assay was carried out in a 200 μL reaction volume using Greiner UV-Star® 96 well plates. MCD conversion was spectrophotometrically monitored at 290 nm (F=20/mM·cm) using a CLARIOstar® Plus microplate reader (BMG labtech, Germany) at 25° C. […] The buffers were acetate buffer for pH 4-5.5, MES buffer for pH 6 and 6.5, and HEPES buffer for pH 7-8. The MCD mixture was prepared and aliquoted to 96-well plates, followed by enzyme addition (10 μL of appropriate dilution). […] Stock solutions were prepared in advance for KBr (0.25M), Na3VO4 (25 mM), MCD (0.5 mM, adjusted pH to 6), and buffers (1M).
(§2) The absorbance values were plotted against time. For each curve, the slope of linear regression was determined as the initial velocity (Abs/min) of the enzyme activity.

[2] = test system: Curvularia pseudobrachyspora US-215 (ATCC PTA-127509) VHPO, purified, SEQ ID NO: 5; settings: MCD assay; for Ki: pH 5.5, substrate inhibition model; for Km: pH 5.5, 25° C.
Experimental: as §1, §2
(§3) The following enzyme concentrations were used in the MCD assay: • For Curvularia sp.

[3] = test system: Curvularia spicifera US-188 (ATCC PTA-127510) VHPO, purified, SEQ ID NO: 3; settings: MCD assay; for Ki: pH 6.5, substrate inhibition model; for Km: pH 6.5, 25° C.
Experimental: as §1, §2, §3

[4] = test system: Curvularia protuberata US-1111 (ATCC PTA-127607) VHPO, purified, SEQ ID NO: 7; settings: MCD assay; for Km: pH 5.5, 25° C.
Experimental: as §1, §2, §3

[5] = test system: Curvularia sp. 4388 (NMI Accession No. V22/011149) VHPO, purified, SEQ ID NO: 2; settings: MCD assay; for Km: pH 5.5, 25° C.
Experimental: as §1, §2, §3

[6] = test system: VHPO expressed in Curvularia sp. 4388 (SEQ ID NO: 2); experiment: Enzyme reaction via VHPO mediated pathway, bromoform by GCMS; format: biochemical; settings: VHPO (Curvularia sp. AU-4388 supernatant), KBr, H2O2, vanadate, 24 hours at room temperature
[7] = test system: methyl-coenzyme M reductase (MCR); settings: background; cited from earlier work
[8] = MCD assay, pH profile of VHPO activity; format: biochemical; settings: for Optimal pH: first value of the cell: pH at which the kinetic parameters were determined; for optimal pH of enzyme activity: typical MCD assay, 25° C., value in brackets in Table 8, footnotes and text
[9] = pH 5.5, final 20-fold dilution of supernatant
[10] = read-out: KM (H2O2), H2O2 varied
[11] = pH 5.5, final 200-fold dilution
[12] = read-out: KI (Br-), pH 5.5, substrate inhibition model

Molecule: ClC(Br)Br [dibromochloromethane]
- activity at inhibiting methane production (methane production): highest activity

Molecule: OO [H2O2, hydrogen peroxide]
- Vmax (H2O2) [1, 9]: 0.466 [Abs/min]
- Km [1, 10]: 297 µM
- Vmax (H2O2) ([2]; pH 5.5, final 20-fold dilution): 0.123 [Abs/min]
- Ki ([2]; read-out: KI (H2O2)): 31.3 mM
- Km [2, 10]: 3300 µM
- Vmax (H2O2) ([3]; pH 6.5, final 20-fold dilution): 0.357 [Abs/min]
- Ki ([3]; read-out: KI (H2O2)): 2.76 mM
- Km [3, 10]: 400 µM
- Vmax (H2O2) ([4]; pH 5.5, final 20-fold dilution): 0.0103 [Abs/min]
- Km [4, 10]: 611 µM
- Vmax (H2O2) [5, 11]: 0.378 [Abs/min]
- Km [5, 10]: 645 µM

Molecule: CC1(C)CC(=O)CC(=O)C1 [dimedone]
- GCMS peak for bromoform [6]: significant peak

Molecule: BrC(Br)Br [Bromoform, bromoform]
- activity at inhibiting methane production (methane production): highest activity

Molecule: [Br-].[K+] [Br-, bromide]
- Vmax (Br-) [1, 9]: 0.964 [Abs/min]
- Ki [1, 12]: 1.33 mM
- Km ([1]; read-out: KM (Br-), KBr varied): 155 µM
- Vmax (Br-) ([2]; pH 5.5, final 20-fold dilution): 0.039 [Abs/min]
- Ki ([2]; read-out: KI (Br-)): 9.35 mM
- Km ([2]; read-out: KM (Br-), KBr varied): 73 µM
- Vmax (Br-) ([3]; pH 6.5, final 20-fold dilution): 0.356[Abs/min]
- Ki ([3]; read-out: KI (Br-)): 17.5 mM
- Km ([3]; read-out: KM (Br-), KBr varied): 125 µM
- Vmax (Br-) ([4]; pH 5.5, final 20-fold dilution): 0.0083 [Abs/min]
- Ki [4, 12]: 33.6 mM
- Km ([4]; read-out: KM (Br-), KBr varied): 38.7 µM
- Vmax (Br-) [5, 11]: 0.395 [Abs/min]
- Ki [5, 12]: 2.9 mM
- Km ([5]; read-out: KM (Br-), KBr varied): 68 µM

Molecule: BrC(Br)Br [bromoform]
- inhibition of methyl-coenzyme M reductase (MCR) [7]: competitive inhibitor

B1: Purified VHPO (SEQ ID NO: 7): VHPO of Curvularia protuberata US-1111; purified from recombinant P. pastoris (protein)
chain: MGSVTPIPLPKIDEPEEYNTNYILFWNYVGLELNRVTHTVGGPLTGPPLSARALGMLHLAVHDAYFSICPPTDFTTFLSPDAENAAYRLPSTNGANDARQAVAGAALKMLTSLYMKPIEQPNPNPSANISDNAYAQLALVLDRSAMEAPGGIDRESASFMFGEAVADVFFALLNDPRGASQEGYHPTPGRYKFDDEPTHPVVLIPVDPNNPNGPKKPFRQYHAPFYGKTTKRFATQSEHFLADPPGLRSNADETAEYDDAIRVAIAMGGAQALNSTKRSPWQTAQGLYWAYDGSNLIGTPPRFYNQIVRRIAVTYKKEEDIANSEVNNADFARLFALVDVACTDAGIFSWKEKWEFEFWRPLSGVRDDGRPDHGDPFWLTLGAPATNTNDIPFKPPFPAYPSGHATFGGAVFQMVRRYYNGRVGTWKDDEPDNIAIDMMISEELNGLNRDLRQPYDPTAPIEDQPGIVRTRIVRHFDSAWELMFENAISRIFLGVHWRFDAAAARDILIPTTTKDVYAVDNNGATVFQNVEDIRYTTKGTREDREGLFPIGGVPLGIEIANEIFENGLKPTPPEIQPMPQETPAQKPVKGMWQEEQVPVVEEAP
- Optimal pH [8]: 5.5
- optimal pH of enzyme activity [8]: 5
- optimal pH of enzyme activity ([8]; listed as SEQ ID NO: 7): 5

B2: Purified VHPO (SEQ ID NO: 3): VHPO of Curvularia spicifera US-188; purified from recombinant P. pastoris (protein)
chain: MGSVTPIPIPRIDEPEEYNTNYILFWNHVGLELNRITHTVGGPLTGPPLSARALGMLHLAIHDAYFSICPPSDFTTFLSPDAENVAYRLPSLNGADDARQAVAGAALKMLSLLYMKPVEQPNPNPGANISDNAYAQLGLVLDRSVLKAPGGVDQESASFMFGEAVADVFFALLNDPRGASQEGYHPTLGRYKFDDEPTHPVVLIPVDPNNPNGPKKPFRQYHAPFYGKTTKRFATQSEHFLADPPGLRSNADETAEYDDSIRVAIAMGGAQGLNSTKRSPWQTAQGLYWAYDGSNLIGTPPRFYNQIVRRIAVTYKKEEDLANSEVNNADFARLFALVNVACTDAGIFSWKEKWEFEFWRPLSGVRDDGRPDHGDPFWLTLGAPATNTNDIPFKPPFPAYPSGHATFGGAVFQMVRRYYNGRVGTWKDDEPDNIAIDMMISEELNGLNRDLRQPYDPTAPIEDQPGIVRTRIVRHFDSAWEMMFENAISRIFLGVHWRFDAAAARDILIPTTTKDVYAVDNNGATVFQNVEDVRYSTKGTREGREGLFPIGGVPLGIEIADEIFNNGLRPTPPELQPMPQETPVQKPVEGMWEEEQAPIVNEAP
- Optimal pH [8]: 6.5
- optimal pH of enzyme activity [8]: 7

B3: Purified VHPO (SEQ ID NO: 2): VHPO of Curvularia sp. 4388, reference VHPO; purified from recombinant P. pastoris (protein)
chain: MGSITPIPLPKIDEPEEYNTNYILFWNHVGLELNRVTHTVGGPLTGPPLSARALGMLHLAIHDAYFSIYPPTDFSTFLSPNAENAAYRLPSPNGANDARQAVAGAALKMLTSLYMKPVETPNPNPGANISDNAYAQLALVIDRSVLKAPGGVDRESASFMFGETVADVFFALLNDPRGASQEGYHPTPGRYKFDDEPTHPVVLIPVDPNNPNGPKKPFRQYHAPFYGKTTKRFATQSEHFLADPPGLRSNADETAEYDDAIRVAIAMGGAQALNSTKRSPWQTAQGLFWAYDGSNLIGTPPRFYNQIVRRIAVTYKKEEDLANSEVNNADFARLFALVDVACTDAGIFSWKEKWEYEFWRPLSGVRDDGRPDHGDPFWLTLGAPATNTNDIPFKPPFPAYPSGHATFGGAVFQMVRRYYNGRVGTWKDDEPDNIAIDMMISEELNGLNRDLRQPYDPTAPIEDQPGIVRTRIVRHFDSAWELMFENAISRIFLGVHWRFDAAAARDILIPTTTKDVYAVDNNGATVFQNVEDIRYTTKGTREDREGLFPIGGVPLGIEIADEIFNNGLKPTPPELQPMPQQTPVQKPVGQQPVQGMWAEEQAPVIKEAP
- Optimal pH [8]: pH 5.5
- optimal pH of enzyme activity [8]: 5.5

B4: Purified VHPO (SEQ ID NO: 5): VHPO of Curvularia pseudobrachyspora US-215; purified from recombinant P. pastoris (protein)
chain: MGSVIPIPLPKIDEPEEYNTNYVLFWNNVGLELNRVTHTVGGPLTGPPLSARALGMLHLAIHDAYFSIYPPTDFTTFLSPDAENAAYRLPSLNGANDARQAVAGAALKMLSSLYMKPDSSSGGSISDNAYAQLALVIDRSVLKAPGGVDRESASFVFGEAVADVFFALLNDPRGASQEGYHPTPGRYKFDDEPTHPVVLVPVDPNNPNGPKKPFRQYHAPFYGKTTKRFATQTEHFLADPPGLRSNADETAEYDDSIRVAVAMGGAQGLNSTKRSPWQTAQGLFWAYDGSNLVGTPPRFYNQIVRRIAVTYKKEEDLANSEVNNADFARLFALVDVACTDAGIFSWKEKWEYEFWRPLSGVRDDGRPDHGDPFWLTLGAPATNTNDIPFKPPFPAYPSGHATFGGAVFQMVRRYYNGRVGTWKDDEPDNIAIDMVISEELNGLNRDLRQPYDPTAPIEDQPGIVRTRIVRHFDSAWEMMFENAISRIFLGVHWRFDAAAARDILIPTTTKDVYAVDNNGATVFQNVEDIRYSTKGTREDREGLFPIGGVPLGIEIADEIFNNGLRPTPPELQPMPQETPVQKPIGQQLVQGLWHDEEGQVPVVKEAP
- Optimal pH [8]: pH 5.5
- optimal pH of enzyme activity [8]: 5.5
